Data: ChEMBL document CHEMBL1145846, “Discovery of allosteric potentiators for the metabotropic glutamate 2 receptor: synthesis and subtype selectivity of N-(4-(2-methoxyphenoxy)phenyl)-N-(2,2,2- trifluoroethylsulfonyl)pyrid-3-ylmethylamine” (J Med Chem, 2003)

Legend:
[1] = molecular target: T1, Metabotropic glutamate receptor 2 (Homo sapiens, UniProt Q14416); assay: Ability to displace [3H]LY-341,495 at glutamate-site on Metabotropic glutamate receptor 2; No significant displacement
[2] = molecular target: T1, Metabotropic glutamate receptor 2; assay: Effective concentration against Metabotropic glutamate receptor 2
[3] = molecular target: Metabotropic glutamate receptor 3 (Homo sapiens, UniProt Q14832); assay: Effective concentration against human cloned Metabotropic glutamate receptor 3
Chain of Metabotropic glutamate receptor 3 (Q14832 whole entry): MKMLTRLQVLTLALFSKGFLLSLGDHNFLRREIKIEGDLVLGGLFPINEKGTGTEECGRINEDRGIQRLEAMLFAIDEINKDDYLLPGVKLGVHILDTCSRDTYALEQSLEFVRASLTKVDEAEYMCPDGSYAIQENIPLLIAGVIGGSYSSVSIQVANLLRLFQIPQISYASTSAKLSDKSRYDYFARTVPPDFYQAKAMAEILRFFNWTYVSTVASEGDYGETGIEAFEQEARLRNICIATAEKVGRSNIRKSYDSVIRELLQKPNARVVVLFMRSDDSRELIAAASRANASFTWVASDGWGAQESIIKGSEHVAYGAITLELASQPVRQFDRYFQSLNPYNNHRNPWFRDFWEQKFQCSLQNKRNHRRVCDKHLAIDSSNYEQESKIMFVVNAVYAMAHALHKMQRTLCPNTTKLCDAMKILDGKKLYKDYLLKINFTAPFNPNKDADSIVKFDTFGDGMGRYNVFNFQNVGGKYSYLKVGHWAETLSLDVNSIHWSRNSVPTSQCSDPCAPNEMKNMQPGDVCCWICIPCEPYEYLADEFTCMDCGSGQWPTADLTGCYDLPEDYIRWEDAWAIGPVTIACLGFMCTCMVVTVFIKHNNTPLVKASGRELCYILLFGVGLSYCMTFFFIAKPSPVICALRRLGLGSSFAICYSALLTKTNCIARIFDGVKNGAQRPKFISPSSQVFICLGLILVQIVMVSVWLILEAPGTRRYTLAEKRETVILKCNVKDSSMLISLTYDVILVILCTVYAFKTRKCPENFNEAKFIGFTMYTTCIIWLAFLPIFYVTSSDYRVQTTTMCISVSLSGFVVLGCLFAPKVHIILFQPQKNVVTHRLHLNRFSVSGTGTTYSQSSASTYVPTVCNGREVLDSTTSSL

T1 sequence (Q14416 whole entry): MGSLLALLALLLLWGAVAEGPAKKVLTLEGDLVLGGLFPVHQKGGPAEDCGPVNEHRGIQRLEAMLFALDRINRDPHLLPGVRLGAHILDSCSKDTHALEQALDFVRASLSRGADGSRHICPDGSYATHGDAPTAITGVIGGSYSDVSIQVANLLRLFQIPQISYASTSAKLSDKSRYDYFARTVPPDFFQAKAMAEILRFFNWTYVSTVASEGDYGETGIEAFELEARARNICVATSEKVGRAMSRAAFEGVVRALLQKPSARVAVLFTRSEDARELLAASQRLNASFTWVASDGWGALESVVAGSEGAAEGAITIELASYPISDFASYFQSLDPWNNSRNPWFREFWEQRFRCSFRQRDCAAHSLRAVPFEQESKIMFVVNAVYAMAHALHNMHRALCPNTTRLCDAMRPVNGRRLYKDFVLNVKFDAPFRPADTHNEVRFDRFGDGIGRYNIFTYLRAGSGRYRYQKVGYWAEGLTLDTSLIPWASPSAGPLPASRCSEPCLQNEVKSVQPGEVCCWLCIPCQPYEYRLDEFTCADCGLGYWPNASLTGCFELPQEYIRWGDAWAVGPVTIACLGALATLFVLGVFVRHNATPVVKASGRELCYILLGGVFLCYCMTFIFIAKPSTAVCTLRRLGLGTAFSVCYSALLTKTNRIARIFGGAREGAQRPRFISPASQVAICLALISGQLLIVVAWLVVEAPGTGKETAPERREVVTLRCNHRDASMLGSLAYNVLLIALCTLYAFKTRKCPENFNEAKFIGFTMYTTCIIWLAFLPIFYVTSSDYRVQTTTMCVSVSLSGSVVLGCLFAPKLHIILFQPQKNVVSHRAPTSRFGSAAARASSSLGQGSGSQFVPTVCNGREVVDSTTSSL

| IC50 [1] [µM] | EC50 [2] [µM] | EC50 [3] [µM] | SMILES |
| --- | --- | --- | --- |
| > 100 | 0.27 | – | COc1ccccc1Oc1ccc(N(Cc2cccnc2)S(=O)(=O)CC(F)(F)F)cc1 |
| – | 1.5 | > 12.5 | CCS(=O)(=O)N(Cc1cccnc1)c1ccc(Oc2ccccc2)cc1 |
